Assay results published in ChEMBL document CHEMBL3991601, “The target landscape of clinical kinase drugs” (Science, 2017).
Activity calls are given as the source filed them. Rule as the data show it, for most assays here: actives have a measured Kd and inactives only a lower limit.
Also: in the data inactive means no Kd found up to 30 µM.

Each compound was assayed against Ribosomal protein S6 kinase alpha-1 (Homo sapiens, UniProt Q15418).
Ribosomal protein S6 kinase alpha-1, sequence (Q15418 whole entry): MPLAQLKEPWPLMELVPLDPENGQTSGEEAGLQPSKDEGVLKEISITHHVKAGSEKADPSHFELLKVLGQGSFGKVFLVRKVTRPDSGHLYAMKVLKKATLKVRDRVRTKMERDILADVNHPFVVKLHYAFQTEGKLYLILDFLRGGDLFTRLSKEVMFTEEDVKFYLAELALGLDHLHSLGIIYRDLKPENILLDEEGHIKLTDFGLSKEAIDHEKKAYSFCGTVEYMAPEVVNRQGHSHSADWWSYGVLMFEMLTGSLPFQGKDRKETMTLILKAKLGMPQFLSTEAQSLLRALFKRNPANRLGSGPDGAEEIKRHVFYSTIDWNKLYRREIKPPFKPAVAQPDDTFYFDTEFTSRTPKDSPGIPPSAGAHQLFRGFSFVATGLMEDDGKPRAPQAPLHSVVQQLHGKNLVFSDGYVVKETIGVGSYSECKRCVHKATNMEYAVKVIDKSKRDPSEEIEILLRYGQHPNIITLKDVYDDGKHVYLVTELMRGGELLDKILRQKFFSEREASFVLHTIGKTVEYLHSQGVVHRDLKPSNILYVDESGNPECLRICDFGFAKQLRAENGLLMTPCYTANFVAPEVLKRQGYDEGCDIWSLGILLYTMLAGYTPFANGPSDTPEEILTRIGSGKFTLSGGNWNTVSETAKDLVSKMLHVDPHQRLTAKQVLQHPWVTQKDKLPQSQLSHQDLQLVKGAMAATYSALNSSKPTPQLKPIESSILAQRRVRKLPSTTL
In the case of `CNC(=O)c1cc(Oc2ccc(NC(=O)Nc3ccc(Cl)c(C(F)(F)F)c3)c(F)c2)ccn1` [REGORAFENIB], the Kd is reported as > 30 µM (inactive). With `CN(C)C(=O)c1cc2cnc(Nc3ccc(N4CCNCC4)cn3)nc2n1C1CCCC1` [RIBOCICLIB] the Kd was > 30 µM (inactive). With `COc1cc(OC)c(/C=C/S(=O)(=O)Cc2ccc(OC)c(NCC(=O)O)c2)c(OC)c1` [RIGOSERTIB] the Kd was > 30 µM (inactive).

What follows are compounds tested against DNA topoisomerase 2-alpha (Homo sapiens, UniProt P11388).
DNA topoisomerase 2-alpha, sequence (P11388 whole entry): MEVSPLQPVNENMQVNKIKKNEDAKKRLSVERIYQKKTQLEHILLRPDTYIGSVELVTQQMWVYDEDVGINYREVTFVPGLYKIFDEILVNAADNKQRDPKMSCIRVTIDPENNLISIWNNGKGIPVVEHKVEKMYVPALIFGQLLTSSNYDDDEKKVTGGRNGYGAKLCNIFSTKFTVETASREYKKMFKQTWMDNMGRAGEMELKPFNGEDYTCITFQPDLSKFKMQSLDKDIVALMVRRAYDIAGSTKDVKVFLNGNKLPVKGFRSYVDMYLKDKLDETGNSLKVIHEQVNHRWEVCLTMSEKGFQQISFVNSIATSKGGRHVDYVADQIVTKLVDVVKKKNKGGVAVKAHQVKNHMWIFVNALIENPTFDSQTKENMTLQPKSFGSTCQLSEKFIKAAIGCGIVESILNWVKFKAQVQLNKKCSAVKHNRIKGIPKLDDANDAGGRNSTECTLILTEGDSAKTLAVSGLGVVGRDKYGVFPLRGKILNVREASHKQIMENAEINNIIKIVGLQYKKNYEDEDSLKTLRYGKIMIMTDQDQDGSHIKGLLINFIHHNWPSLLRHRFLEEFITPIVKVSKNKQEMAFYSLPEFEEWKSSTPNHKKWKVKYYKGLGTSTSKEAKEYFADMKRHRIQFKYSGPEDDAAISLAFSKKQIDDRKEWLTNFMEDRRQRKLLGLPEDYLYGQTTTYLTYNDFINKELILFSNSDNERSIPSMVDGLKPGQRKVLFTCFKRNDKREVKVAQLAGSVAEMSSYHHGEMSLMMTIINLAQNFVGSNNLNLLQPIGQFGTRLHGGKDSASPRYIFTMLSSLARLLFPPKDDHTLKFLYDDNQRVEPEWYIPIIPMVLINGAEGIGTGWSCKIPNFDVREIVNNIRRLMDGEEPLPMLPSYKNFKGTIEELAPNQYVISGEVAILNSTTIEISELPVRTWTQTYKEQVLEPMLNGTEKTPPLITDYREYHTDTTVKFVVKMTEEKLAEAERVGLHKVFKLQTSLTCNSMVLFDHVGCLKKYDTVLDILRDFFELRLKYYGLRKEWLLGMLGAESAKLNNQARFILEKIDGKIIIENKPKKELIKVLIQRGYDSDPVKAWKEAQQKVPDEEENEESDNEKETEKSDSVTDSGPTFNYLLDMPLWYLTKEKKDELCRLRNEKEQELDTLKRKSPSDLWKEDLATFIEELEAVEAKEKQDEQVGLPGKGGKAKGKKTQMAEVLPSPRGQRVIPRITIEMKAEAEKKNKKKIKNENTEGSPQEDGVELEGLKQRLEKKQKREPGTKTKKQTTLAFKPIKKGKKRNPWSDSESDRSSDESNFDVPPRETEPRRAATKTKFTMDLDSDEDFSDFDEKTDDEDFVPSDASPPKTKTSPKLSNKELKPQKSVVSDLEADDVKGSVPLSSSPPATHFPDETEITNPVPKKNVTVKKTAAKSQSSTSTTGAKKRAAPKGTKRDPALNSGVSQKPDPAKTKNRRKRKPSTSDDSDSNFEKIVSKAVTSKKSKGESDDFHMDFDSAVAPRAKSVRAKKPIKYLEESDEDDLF
In the case of `CNC(=O)c1cc(Oc2ccc(NC(=O)Nc3ccc(Cl)c(C(F)(F)F)c3)c(F)c2)ccn1` [REGORAFENIB], the Kd is reported as > 30 µM (inactive). With `CN(C)C(=O)c1cc2cnc(Nc3ccc(N4CCNCC4)cn3)nc2n1C1CCCC1` [RIBOCICLIB] the Kd was > 30 µM (inactive). For `COc1cc(OC)c(/C=C/S(=O)(=O)Cc2ccc(OC)c(NCC(=O)O)c2)c(OC)c1` [RIGOSERTIB], the Kd was > 30 µM (inactive).

Each compound was assayed against T1, Serine/threonine-protein kinase D3 (Homo sapiens, UniProt O94806).
T1 sequence (O94806 whole entry): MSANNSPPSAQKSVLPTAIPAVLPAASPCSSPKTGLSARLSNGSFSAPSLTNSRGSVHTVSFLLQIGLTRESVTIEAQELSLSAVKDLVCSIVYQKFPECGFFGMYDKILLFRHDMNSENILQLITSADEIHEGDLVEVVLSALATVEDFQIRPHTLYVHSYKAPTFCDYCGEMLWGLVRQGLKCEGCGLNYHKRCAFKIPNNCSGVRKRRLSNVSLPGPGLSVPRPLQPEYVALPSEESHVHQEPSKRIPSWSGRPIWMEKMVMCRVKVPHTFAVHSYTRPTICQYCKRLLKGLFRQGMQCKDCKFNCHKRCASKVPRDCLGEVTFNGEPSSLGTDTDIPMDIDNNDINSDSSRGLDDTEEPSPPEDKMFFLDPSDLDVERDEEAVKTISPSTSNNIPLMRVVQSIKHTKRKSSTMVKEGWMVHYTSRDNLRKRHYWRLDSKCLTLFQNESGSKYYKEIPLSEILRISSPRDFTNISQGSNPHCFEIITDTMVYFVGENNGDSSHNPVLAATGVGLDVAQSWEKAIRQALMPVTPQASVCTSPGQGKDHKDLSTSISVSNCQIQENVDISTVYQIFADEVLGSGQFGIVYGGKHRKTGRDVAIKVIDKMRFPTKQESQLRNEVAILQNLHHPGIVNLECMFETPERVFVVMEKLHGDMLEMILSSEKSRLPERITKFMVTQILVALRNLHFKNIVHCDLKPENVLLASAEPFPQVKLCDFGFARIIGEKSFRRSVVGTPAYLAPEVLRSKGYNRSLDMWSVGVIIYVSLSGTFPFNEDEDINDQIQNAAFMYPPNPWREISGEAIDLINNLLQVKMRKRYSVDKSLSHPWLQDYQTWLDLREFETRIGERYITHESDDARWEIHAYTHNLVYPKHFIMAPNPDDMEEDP
With `CNC(=O)c1cc(Oc2ccc(NC(=O)Nc3ccc(Cl)c(C(F)(F)F)c3)c(F)c2)ccn1` [REGORAFENIB] the Kd was > 30 µM (inactive). For `CN(C)C(=O)c1cc2cnc(Nc3ccc(N4CCNCC4)cn3)nc2n1C1CCCC1` [RIBOCICLIB], the Kd was > 30 µM (inactive). In the case of `COc1cc(OC)c(/C=C/S(=O)(=O)Cc2ccc(OC)c(NCC(=O)O)c2)c(OC)c1` [RIGOSERTIB], the Kd is reported as > 30 µM (inactive).

The compounds below were run against Aurora kinase B (Homo sapiens, UniProt Q96GD4).
For `CNC(=O)c1cc(Oc2ccc(NC(=O)Nc3ccc(Cl)c(C(F)(F)F)c3)c(F)c2)ccn1` [REGORAFENIB], the Kd was > 30 µM (inactive). In the case of `CN(C)C(=O)c1cc2cnc(Nc3ccc(N4CCNCC4)cn3)nc2n1C1CCCC1` [RIBOCICLIB], the Kd is reported as > 30 µM (inactive). For `COc1cc(OC)c(/C=C/S(=O)(=O)Cc2ccc(OC)c(NCC(=O)O)c2)c(OC)c1` [RIGOSERTIB], the Kd was > 30 µM (inactive).

The compounds below were run against Cyclin-dependent kinase 5 (Homo sapiens, UniProt Q00535).
`CNC(=O)c1cc(Oc2ccc(NC(=O)Nc3ccc(Cl)c(C(F)(F)F)c3)c(F)c2)ccn1` [REGORAFENIB] was tested, and the Kd was > 30 µM (inactive). In the case of `CN(C)C(=O)c1cc2cnc(Nc3ccc(N4CCNCC4)cn3)nc2n1C1CCCC1` [RIBOCICLIB], the Kd is reported as > 30 µM (inactive). With `COc1cc(OC)c(/C=C/S(=O)(=O)Cc2ccc(OC)c(NCC(=O)O)c2)c(OC)c1` [RIGOSERTIB] the Kd was > 30 µM (inactive).

Each compound was assayed against Cyclin-dependent kinase 7 (Homo sapiens, UniProt P50613).
Cyclin-dependent kinase 7, sequence (P50613 whole entry): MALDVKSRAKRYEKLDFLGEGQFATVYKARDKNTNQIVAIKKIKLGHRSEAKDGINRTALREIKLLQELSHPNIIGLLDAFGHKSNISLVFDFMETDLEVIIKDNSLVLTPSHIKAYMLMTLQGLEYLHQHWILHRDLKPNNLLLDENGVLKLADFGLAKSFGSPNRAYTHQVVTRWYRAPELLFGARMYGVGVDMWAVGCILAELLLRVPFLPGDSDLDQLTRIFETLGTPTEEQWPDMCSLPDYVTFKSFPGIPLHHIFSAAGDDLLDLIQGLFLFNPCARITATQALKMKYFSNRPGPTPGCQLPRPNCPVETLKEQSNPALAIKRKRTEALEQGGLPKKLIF
In the case of `CNC(=O)c1cc(Oc2ccc(NC(=O)Nc3ccc(Cl)c(C(F)(F)F)c3)c(F)c2)ccn1` [REGORAFENIB], the Kd is reported as > 30 µM (inactive). `CN(C)C(=O)c1cc2cnc(Nc3ccc(N4CCNCC4)cn3)nc2n1C1CCCC1` [RIBOCICLIB] was tested, and the Kd was > 30 µM (inactive). `COc1cc(OC)c(/C=C/S(=O)(=O)Cc2ccc(OC)c(NCC(=O)O)c2)c(OC)c1` [RIGOSERTIB] was tested, and the Kd was > 30 µM (inactive).

These compounds were tested against T2, Calcium/calmodulin-dependent protein kinase type IV (Homo sapiens, UniProt Q16566).
T2 sequence (Q16566 whole entry): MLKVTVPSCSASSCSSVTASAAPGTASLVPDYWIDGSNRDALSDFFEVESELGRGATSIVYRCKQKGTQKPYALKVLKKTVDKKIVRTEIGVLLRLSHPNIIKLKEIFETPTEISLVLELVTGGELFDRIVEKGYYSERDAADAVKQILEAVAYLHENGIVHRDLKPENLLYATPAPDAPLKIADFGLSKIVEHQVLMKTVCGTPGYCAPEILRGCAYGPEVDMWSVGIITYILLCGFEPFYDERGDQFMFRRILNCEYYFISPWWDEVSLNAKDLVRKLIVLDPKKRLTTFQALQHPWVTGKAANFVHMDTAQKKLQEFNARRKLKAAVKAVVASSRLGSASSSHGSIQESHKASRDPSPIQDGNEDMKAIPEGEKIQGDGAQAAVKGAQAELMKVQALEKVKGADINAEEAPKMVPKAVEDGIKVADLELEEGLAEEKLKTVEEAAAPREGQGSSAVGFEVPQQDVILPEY
For `CNC(=O)c1cc(Oc2ccc(NC(=O)Nc3ccc(Cl)c(C(F)(F)F)c3)c(F)c2)ccn1` [REGORAFENIB], the Kd was > 30 µM (inactive). `CN(C)C(=O)c1cc2cnc(Nc3ccc(N4CCNCC4)cn3)nc2n1C1CCCC1` [RIBOCICLIB] was tested, and the Kd was > 30 µM (inactive). In the case of `COc1cc(OC)c(/C=C/S(=O)(=O)Cc2ccc(OC)c(NCC(=O)O)c2)c(OC)c1` [RIGOSERTIB], the Kd is reported as > 30 µM (inactive).

The compounds below were run against T3, Membrane-associated tyrosine- and threonine-specific cdc2-inhibitory kinase (Homo sapiens, UniProt Q99640).
T3 sequence (Q99640 whole entry): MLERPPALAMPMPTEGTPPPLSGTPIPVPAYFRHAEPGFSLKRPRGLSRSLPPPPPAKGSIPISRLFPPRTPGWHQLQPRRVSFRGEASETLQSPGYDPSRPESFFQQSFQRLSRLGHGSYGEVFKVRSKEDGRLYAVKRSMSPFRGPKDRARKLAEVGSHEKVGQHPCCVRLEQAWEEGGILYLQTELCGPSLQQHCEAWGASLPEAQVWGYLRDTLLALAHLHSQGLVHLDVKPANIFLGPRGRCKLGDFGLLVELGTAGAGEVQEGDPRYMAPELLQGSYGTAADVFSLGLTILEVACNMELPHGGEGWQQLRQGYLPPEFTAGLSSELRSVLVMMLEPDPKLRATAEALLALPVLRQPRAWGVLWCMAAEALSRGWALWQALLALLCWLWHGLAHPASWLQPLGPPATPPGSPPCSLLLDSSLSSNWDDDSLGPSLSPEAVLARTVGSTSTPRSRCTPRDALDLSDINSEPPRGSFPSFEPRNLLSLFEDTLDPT
`CNC(=O)c1cc(Oc2ccc(NC(=O)Nc3ccc(Cl)c(C(F)(F)F)c3)c(F)c2)ccn1` [REGORAFENIB] was tested, and the Kd was > 30 µM (inactive). With `CN(C)C(=O)c1cc2cnc(Nc3ccc(N4CCNCC4)cn3)nc2n1C1CCCC1` [RIBOCICLIB] the Kd was > 30 µM (inactive). With `COc1cc(OC)c(/C=C/S(=O)(=O)Cc2ccc(OC)c(NCC(=O)O)c2)c(OC)c1` [RIGOSERTIB] the Kd was > 30 µM (inactive).

The compounds below were run against Insulin receptor (Homo sapiens, UniProt P06213).
Insulin receptor, sequence (P06213 28-758 limits assumed): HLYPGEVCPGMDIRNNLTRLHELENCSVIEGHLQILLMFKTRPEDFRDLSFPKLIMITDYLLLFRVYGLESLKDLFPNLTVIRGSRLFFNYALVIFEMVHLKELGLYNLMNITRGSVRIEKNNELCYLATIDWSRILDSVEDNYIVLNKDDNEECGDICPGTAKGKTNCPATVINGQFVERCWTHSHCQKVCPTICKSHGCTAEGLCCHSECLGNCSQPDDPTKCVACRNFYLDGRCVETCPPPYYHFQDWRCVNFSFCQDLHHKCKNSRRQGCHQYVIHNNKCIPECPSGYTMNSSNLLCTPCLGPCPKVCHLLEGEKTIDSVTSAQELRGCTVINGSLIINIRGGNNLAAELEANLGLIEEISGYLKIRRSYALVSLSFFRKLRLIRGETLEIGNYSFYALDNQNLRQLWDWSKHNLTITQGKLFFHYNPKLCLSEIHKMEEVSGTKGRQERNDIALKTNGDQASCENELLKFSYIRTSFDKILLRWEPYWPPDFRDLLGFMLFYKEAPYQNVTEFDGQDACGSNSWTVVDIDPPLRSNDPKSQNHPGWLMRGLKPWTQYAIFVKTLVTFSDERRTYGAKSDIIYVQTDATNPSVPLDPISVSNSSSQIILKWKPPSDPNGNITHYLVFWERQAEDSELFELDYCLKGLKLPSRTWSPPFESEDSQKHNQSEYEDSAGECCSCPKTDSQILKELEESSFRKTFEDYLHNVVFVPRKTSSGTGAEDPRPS
Insulin receptor, sequence (P06213 763-1382 limits assumed): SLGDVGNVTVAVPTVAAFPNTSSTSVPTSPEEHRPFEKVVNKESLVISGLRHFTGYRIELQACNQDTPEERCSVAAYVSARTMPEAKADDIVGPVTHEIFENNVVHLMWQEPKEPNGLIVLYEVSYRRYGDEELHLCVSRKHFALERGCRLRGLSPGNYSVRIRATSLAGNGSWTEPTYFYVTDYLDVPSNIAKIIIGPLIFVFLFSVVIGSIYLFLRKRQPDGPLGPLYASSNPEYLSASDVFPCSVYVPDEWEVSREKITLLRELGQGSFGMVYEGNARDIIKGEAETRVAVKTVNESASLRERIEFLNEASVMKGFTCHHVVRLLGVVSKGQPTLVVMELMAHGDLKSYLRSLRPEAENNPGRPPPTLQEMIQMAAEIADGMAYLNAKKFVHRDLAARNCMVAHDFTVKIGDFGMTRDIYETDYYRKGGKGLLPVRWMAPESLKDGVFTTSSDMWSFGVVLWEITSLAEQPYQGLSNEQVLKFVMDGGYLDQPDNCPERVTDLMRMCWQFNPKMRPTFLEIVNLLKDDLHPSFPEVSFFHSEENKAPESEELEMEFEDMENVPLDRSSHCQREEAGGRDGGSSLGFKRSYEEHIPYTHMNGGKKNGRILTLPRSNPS
With `CNC(=O)c1cc(Oc2ccc(NC(=O)Nc3ccc(Cl)c(C(F)(F)F)c3)c(F)c2)ccn1` [REGORAFENIB] the Kd was > 30 µM (inactive). `CN(C)C(=O)c1cc2cnc(Nc3ccc(N4CCNCC4)cn3)nc2n1C1CCCC1` [RIBOCICLIB] was tested, and the Kd was > 30 µM (inactive). `COc1cc(OC)c(/C=C/S(=O)(=O)Cc2ccc(OC)c(NCC(=O)O)c2)c(OC)c1` [RIGOSERTIB] was tested, and the Kd was > 30 µM (inactive).

The compounds below were run against T4, Very long-chain specific acyl-CoA dehydrogenase, mitochondrial (Homo sapiens, UniProt P49748).
T4 sequence (P49748 whole entry): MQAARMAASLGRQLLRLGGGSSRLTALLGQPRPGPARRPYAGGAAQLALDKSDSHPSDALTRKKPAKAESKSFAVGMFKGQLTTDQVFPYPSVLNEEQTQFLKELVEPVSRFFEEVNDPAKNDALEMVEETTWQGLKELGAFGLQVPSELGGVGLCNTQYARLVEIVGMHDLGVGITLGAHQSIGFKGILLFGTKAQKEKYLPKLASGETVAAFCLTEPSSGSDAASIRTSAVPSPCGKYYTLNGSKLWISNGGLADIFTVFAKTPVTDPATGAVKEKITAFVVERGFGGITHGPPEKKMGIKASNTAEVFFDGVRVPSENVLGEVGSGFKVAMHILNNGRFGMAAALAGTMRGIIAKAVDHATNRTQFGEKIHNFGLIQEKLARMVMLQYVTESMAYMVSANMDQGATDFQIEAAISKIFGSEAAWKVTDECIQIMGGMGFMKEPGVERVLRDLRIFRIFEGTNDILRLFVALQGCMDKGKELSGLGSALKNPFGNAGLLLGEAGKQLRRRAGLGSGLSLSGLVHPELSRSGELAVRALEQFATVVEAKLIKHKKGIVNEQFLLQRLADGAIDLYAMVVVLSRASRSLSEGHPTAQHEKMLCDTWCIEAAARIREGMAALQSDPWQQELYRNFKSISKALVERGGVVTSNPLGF
In the case of `CNC(=O)c1cc(Oc2ccc(NC(=O)Nc3ccc(Cl)c(C(F)(F)F)c3)c(F)c2)ccn1` [REGORAFENIB], the Kd is reported as > 30 µM (inactive). In the case of `CN(C)C(=O)c1cc2cnc(Nc3ccc(N4CCNCC4)cn3)nc2n1C1CCCC1` [RIBOCICLIB], the Kd is reported as > 30 µM (inactive). `COc1cc(OC)c(/C=C/S(=O)(=O)Cc2ccc(OC)c(NCC(=O)O)c2)c(OC)c1` [RIGOSERTIB] was tested, and the Kd was > 30 µM (inactive).

The compounds below were run against Serine/threonine-protein kinase SIK3 (Homo sapiens, UniProt Q9Y2K2).
In the case of `CNC(=O)c1cc(Oc2ccc(NC(=O)Nc3ccc(Cl)c(C(F)(F)F)c3)c(F)c2)ccn1` [REGORAFENIB], the Kd is reported as > 30 µM (inactive). For `CN(C)C(=O)c1cc2cnc(Nc3ccc(N4CCNCC4)cn3)nc2n1C1CCCC1` [RIBOCICLIB], the Kd was > 30 µM (inactive). With `COc1cc(OC)c(/C=C/S(=O)(=O)Cc2ccc(OC)c(NCC(=O)O)c2)c(OC)c1` [RIGOSERTIB] the Kd was > 30 µM (inactive).

What follows are compounds tested against Serine/threonine-protein kinase 10 (Homo sapiens, UniProt O94804).
Serine/threonine-protein kinase 10, sequence (O94804 whole entry): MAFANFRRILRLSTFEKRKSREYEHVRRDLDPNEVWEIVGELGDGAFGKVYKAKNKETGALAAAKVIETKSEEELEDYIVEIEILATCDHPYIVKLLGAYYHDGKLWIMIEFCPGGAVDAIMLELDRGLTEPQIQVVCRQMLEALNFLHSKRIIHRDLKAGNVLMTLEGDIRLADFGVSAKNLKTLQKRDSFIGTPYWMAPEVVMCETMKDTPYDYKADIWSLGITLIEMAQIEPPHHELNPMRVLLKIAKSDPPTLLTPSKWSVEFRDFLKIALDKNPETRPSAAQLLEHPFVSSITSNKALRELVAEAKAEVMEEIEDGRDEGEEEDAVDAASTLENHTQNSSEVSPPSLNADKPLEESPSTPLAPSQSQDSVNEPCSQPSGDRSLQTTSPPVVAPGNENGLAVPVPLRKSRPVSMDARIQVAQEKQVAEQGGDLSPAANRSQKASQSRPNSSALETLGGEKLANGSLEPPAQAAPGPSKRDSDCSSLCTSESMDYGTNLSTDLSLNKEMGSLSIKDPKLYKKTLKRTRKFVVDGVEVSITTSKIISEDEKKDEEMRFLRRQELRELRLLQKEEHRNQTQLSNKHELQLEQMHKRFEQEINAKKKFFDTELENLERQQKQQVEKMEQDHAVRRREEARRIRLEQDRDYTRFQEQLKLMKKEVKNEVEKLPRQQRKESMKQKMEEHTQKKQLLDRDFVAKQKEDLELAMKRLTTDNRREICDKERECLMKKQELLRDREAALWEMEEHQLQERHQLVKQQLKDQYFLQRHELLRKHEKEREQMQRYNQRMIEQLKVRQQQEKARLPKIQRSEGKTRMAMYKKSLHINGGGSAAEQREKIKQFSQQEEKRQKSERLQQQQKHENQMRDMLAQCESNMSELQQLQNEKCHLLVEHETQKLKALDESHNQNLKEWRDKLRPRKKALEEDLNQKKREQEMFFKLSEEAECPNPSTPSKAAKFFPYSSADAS
`CNC(=O)c1cc(Oc2ccc(NC(=O)Nc3ccc(Cl)c(C(F)(F)F)c3)c(F)c2)ccn1` [REGORAFENIB] was tested, and the Kd was > 30 µM (inactive). `CN(C)C(=O)c1cc2cnc(Nc3ccc(N4CCNCC4)cn3)nc2n1C1CCCC1` [RIBOCICLIB] was tested, and the Kd was > 30 µM (inactive). `COc1cc(OC)c(/C=C/S(=O)(=O)Cc2ccc(OC)c(NCC(=O)O)c2)c(OC)c1` [RIGOSERTIB] was tested, and the Kd was > 30 µM (inactive).
